Read-outs that look alike come from different tables or passages of the source.
Columns and labels:
Assay in all cases: HotSpot kinase profiling
Type in all cases: biochemical
[1] = biological target: T1, FAK/PTK2 (Homo sapiens, UniProt Q05397)
T1 construct: purchased Reaction Biology Corp
Outline: (§1)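 Radiometric kinase assay with P81 filter capture; each kinase was added to fresh substrate plus cofactors in reaction buffer and incubated 2 h at room temperature. Unreacted phosphate was washed off with 0.1% phosphoric acid before detection; percent inhibition is relative to DMSO control, averaged over replicates.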

[2] = biological target: T2, IRAK1 (Homo sapiens, UniProt P51617)
T2 construct: purchased Reaction Biology Corp
Outline: as §1

[3] = biological target: T3, CTK/MATK (Homo sapiens, UniProt P42679)
T3 construct: purchased Reaction Biology Corp
T3 sequence (P42679 1-507): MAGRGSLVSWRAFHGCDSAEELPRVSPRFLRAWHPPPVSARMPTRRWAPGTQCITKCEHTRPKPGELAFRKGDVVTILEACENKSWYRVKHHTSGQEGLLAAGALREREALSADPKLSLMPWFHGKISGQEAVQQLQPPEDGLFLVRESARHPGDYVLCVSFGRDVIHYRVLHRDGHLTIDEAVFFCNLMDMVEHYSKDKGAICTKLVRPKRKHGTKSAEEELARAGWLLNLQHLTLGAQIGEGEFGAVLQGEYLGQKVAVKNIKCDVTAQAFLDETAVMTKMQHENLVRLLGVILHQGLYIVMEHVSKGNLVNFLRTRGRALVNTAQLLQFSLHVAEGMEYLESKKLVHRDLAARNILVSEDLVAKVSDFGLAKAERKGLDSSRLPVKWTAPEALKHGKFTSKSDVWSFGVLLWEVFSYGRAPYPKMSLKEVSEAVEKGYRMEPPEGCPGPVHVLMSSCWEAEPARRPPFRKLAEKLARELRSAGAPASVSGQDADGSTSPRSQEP
Outline: as §1

[4] = biological target: T4, IRR/INSRR (Homo sapiens, UniProt P14616)
T4 construct: purchased Reaction Biology Corp
Outline: as §1

[5] = biological target: T5, RET (Homo sapiens, UniProt P07949)
T5 construct: purchased Reaction Biology Corp
Outline: as §1

[6] = biological target: T6, TNIK (Homo sapiens, UniProt Q9UKE5)
T6 construct: purchased Reaction Biology Corp
Outline: as §1

[7] = biological target: T7, FGFR3 (Homo sapiens, UniProt P22607)
T7 construct: purchased Reaction Biology Corp
Outline: as §1

[8] = biological target: T8, TSSK2 (Homo sapiens, UniProt Q96PF2)
T8 construct: purchased Reaction Biology Corp
T8 sequence (Q96PF2 1-358): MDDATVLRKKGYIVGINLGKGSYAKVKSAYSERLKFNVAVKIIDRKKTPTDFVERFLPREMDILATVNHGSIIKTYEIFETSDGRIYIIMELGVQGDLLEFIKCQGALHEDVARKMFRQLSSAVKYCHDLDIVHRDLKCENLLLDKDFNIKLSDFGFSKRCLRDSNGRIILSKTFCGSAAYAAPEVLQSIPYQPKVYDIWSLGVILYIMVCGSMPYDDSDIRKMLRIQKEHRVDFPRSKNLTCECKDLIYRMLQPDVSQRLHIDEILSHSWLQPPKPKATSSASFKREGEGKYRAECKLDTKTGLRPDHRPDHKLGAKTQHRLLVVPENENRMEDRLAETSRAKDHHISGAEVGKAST
Outline: as §1

[9] = biological target: T9, LCK2/ICK (Homo sapiens, UniProt Q9UPZ9)
T9 construct: purchased Reaction Biology Corp
T9 sequence (Q9UPZ9 1-632): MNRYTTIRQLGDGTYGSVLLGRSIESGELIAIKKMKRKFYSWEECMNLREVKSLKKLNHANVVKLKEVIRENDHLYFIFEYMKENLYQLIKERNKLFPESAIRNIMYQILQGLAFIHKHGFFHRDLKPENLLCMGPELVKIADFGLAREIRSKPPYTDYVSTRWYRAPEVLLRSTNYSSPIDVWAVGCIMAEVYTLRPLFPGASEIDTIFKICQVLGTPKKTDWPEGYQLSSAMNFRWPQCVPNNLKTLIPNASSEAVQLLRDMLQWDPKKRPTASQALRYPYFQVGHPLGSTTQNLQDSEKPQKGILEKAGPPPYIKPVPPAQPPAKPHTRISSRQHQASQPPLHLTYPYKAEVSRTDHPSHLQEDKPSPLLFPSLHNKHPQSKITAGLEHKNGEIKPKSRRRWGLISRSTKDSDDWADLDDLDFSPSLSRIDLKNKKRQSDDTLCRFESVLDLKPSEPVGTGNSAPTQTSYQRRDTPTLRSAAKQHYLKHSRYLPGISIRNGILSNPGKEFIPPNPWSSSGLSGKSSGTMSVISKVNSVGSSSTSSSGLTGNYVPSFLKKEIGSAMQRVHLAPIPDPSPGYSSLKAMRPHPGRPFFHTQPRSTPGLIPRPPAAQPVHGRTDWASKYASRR
Outline: as §1

[10] = biological target: T10, PKAcg (Homo sapiens, UniProt P22612)
T10 construct: purchased Reaction Biology Corp
Outline: as §1

[11] = biological target: T11, P70S6Kb/RPS6KB2 (Homo sapiens, UniProt Q9UBS0)
T11 construct: purchased Reaction Biology Corp
Outline: as §1

[12] = read-out: % Enzyme Activity (relative to DMSO controls) Run 1
[13] = read-out: % Enzyme Activity (relative to DMSO controls) Run 2

T2 sequence (P51617 whole entry): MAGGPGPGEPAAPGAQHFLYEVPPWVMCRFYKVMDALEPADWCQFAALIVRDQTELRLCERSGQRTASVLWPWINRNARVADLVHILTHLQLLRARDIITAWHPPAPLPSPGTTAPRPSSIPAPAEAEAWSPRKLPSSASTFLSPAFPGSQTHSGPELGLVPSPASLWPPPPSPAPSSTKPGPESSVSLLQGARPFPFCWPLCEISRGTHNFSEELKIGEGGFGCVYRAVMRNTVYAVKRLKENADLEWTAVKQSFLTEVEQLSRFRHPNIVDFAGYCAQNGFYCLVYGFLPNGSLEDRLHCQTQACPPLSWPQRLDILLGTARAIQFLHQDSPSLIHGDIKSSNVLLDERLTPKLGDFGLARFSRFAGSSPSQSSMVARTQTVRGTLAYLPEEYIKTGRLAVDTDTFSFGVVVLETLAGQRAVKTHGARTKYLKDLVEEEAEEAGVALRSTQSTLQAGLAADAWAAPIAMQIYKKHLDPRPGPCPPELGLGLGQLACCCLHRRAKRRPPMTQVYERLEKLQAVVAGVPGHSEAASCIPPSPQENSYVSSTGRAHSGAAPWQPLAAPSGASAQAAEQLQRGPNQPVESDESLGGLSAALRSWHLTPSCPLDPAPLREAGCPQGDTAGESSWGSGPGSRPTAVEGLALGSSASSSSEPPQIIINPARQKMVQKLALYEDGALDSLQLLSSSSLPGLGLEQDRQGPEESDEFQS
T10 sequence (P22612 whole entry): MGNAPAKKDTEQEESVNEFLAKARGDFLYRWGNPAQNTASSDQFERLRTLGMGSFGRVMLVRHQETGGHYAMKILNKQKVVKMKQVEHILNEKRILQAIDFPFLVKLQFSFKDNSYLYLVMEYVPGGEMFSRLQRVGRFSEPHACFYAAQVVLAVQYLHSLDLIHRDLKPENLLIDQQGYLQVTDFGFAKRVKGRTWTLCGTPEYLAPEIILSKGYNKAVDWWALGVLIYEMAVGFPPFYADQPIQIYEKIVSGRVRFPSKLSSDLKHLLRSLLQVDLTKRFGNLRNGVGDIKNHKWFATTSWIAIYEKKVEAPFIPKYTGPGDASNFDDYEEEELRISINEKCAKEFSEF
T5 sequence (P07949 29-1114): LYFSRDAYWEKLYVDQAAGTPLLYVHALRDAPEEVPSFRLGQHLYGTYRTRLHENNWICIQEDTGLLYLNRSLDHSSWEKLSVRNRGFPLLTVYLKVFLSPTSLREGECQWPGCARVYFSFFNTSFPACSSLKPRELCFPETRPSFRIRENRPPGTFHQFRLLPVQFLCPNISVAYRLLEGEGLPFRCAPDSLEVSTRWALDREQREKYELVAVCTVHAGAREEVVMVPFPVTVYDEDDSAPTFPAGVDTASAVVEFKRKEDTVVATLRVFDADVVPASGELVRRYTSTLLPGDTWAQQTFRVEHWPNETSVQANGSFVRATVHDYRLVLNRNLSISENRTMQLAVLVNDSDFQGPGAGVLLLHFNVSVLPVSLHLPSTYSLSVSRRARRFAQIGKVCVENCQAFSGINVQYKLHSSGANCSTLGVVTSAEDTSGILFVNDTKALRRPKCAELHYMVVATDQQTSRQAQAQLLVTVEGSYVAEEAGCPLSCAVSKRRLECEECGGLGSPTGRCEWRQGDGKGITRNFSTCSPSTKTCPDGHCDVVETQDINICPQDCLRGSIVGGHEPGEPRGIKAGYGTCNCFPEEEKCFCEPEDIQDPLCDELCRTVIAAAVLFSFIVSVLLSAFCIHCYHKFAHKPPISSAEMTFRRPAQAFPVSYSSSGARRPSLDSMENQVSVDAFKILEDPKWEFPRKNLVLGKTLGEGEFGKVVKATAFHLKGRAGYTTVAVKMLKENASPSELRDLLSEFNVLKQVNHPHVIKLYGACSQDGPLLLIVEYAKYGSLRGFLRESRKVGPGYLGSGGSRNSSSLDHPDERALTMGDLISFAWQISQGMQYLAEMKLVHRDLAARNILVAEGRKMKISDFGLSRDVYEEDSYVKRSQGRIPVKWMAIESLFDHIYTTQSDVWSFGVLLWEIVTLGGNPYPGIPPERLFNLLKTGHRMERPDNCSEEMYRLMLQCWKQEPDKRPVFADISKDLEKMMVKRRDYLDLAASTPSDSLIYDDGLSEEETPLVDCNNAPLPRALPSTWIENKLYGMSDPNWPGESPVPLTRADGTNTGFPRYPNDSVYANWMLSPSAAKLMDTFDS
T6 sequence (Q9UKE5 whole entry): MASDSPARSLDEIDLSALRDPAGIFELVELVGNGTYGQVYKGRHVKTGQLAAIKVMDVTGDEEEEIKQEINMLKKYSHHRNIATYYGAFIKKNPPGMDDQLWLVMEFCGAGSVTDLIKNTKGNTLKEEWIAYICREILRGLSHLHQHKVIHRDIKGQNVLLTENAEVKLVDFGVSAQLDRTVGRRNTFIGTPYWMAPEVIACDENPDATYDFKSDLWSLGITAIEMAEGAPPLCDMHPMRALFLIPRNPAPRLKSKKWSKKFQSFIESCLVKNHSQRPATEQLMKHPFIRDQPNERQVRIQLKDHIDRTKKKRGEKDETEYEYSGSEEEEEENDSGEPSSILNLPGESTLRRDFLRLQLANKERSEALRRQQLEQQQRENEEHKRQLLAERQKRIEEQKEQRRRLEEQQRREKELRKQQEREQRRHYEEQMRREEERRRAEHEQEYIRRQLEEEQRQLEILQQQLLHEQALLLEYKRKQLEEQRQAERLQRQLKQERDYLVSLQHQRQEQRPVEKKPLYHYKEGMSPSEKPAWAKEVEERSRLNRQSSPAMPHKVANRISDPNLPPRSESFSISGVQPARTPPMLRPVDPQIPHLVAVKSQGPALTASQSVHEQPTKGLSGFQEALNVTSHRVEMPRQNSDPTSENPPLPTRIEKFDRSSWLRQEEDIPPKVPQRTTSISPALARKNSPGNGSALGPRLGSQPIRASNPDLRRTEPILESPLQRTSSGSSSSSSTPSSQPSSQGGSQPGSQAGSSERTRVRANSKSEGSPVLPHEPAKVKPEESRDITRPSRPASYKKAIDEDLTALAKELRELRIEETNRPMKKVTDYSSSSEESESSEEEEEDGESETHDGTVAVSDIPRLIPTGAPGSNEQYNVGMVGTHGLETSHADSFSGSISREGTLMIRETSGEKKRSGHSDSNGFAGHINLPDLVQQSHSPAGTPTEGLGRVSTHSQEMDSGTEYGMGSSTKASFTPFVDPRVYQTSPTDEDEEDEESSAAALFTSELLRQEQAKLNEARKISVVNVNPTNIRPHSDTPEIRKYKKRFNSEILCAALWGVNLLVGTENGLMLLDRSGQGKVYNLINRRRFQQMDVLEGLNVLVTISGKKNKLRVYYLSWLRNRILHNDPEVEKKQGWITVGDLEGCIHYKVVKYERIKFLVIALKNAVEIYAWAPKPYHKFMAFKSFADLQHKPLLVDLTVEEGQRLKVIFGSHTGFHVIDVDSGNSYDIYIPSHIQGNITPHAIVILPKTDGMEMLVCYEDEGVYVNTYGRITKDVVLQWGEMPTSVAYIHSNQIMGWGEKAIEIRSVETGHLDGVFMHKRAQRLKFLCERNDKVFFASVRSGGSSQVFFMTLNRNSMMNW
T7 sequence (P22607 23-806): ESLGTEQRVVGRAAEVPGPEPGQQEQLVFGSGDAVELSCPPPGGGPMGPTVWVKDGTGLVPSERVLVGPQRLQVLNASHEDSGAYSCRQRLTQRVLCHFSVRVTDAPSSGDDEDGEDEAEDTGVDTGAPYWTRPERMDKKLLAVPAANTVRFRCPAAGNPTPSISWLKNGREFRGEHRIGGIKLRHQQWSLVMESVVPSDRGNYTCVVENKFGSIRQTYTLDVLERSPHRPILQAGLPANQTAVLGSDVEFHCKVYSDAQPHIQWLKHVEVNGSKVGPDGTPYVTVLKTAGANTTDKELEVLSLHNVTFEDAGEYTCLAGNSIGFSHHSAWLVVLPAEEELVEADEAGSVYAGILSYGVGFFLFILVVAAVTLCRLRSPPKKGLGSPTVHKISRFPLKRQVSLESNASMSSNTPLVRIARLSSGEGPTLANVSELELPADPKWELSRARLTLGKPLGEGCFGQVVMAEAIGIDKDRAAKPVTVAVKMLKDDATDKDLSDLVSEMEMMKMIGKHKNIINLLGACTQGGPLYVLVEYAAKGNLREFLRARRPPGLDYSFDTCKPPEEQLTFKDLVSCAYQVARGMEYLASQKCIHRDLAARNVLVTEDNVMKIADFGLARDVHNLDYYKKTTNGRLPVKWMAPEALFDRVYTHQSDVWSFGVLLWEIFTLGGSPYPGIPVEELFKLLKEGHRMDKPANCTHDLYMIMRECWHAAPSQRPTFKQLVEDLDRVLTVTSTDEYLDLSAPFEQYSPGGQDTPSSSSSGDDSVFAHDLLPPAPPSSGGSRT
T11 sequence (Q9UBS0 whole entry): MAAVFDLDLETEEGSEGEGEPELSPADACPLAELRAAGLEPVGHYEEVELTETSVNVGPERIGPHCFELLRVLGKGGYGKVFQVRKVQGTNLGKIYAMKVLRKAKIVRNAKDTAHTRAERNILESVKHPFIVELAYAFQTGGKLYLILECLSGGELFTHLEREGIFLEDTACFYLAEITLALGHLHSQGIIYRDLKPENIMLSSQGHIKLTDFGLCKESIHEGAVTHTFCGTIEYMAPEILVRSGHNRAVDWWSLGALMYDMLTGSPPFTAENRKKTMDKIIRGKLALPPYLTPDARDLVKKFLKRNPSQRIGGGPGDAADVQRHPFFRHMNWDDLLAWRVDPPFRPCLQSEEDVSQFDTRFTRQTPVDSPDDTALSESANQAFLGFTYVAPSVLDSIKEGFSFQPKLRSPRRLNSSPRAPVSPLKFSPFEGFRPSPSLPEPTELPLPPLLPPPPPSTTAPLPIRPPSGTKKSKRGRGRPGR

SMILES: C=CC(=O)Nc1cccc(Nc2nc(Nc3ccc(OCCOC)c(F)c3)ncc2F)c1 [Compound 2]
- inhibition at 3 µM [1]: 37.1%
- remaining activity at 3 µM [1, 12]: 62.8%
- remaining activity at 3 µM [1, 13]: 62.9%
- inhibition at 3 µM [2]: 24.6%
- remaining activity at 3 µM [2, 12]: 76.5%
- remaining activity at 3 µM [2, 13]: 74.4%
- inhibition at 3 µM [3]: -3.03%
- remaining activity at 3 µM [3, 12]: 102%
- remaining activity at 3 µM [3, 13]: 104%
- inhibition at 3 µM [4]: 10.1%
- remaining activity at 3 µM [4, 12]: 88.9%
- remaining activity at 3 µM [4, 13]: 91%
- inhibition at 3 µM [5]: 86.6%
- remaining activity at 3 µM [5, 12]: 13.2%
- remaining activity at 3 µM [5, 13]: 13.6%
- inhibition at 3 µM [6]: 32.7%
- remaining activity at 3 µM [6, 12]: 66.8%
- remaining activity at 3 µM [6, 13]: 67.8%
- inhibition at 3 µM [7]: 68%
- remaining activity at 3 µM [7, 12]: 32.1%
- remaining activity at 3 µM [7, 13]: 31.8%
- inhibition at 3 µM [8]: 3.36%
- remaining activity at 3 µM [8, 12]: 97%
- remaining activity at 3 µM [8, 13]: 96.3%
- inhibition at 3 µM [9]: 1.98%
- remaining activity at 3 µM [9, 12]: 101%
- remaining activity at 3 µM [9, 13]: 95.1%
- inhibition at 3 µM [10]: -27.8%
- remaining activity at 3 µM [10, 12]: 128%
- remaining activity at 3 µM [10, 13]: 128%
- inhibition at 3 µM [11]: 4.15%
- remaining activity at 3 µM [11, 12]: 95.6%
- remaining activity at 3 µM [11, 13]: 96.1%

Reference: patent publication US9492471B2, “Methods of treating a disease or disorder associated with Bruton'S Tyrosine Kinase” (Celgene Avilomics Research, Inc., priority 2013, dated 2016)
